From patent US20100075960A1 (priority 2006, published 2010)

Tests used:
Format in all cases: cell-based
HCT116 = assay: Inhibition of cell proliferation, HCT116; details: Homo sapiens, HCT-116; 72 h treatment; methylene blue or CellTiter-Glo
Hela = assay: Inhibition of cell proliferation, Hela; details: Homo sapiens, Cervical, 72 h, methylene blue or CellTiter-Glo
Protocol: (§1) II. Inhibition of Cell Proliferation by PLK1 Inhibitors.
(§2) Exponentially growing cell lines of different tumor origins, cultured in appropriate media containing 10% fetal bovine serum at 37° C. in a 5% CO2 incubator were plated in 96 or 384-well plates. Twenty four hours post-plating, cells were treated with different concentrations of test compounds ranging from 20 μM to 0.04 nM. Several wells were left untreated as a control. Seventy two hours post-treatment, cell numbers were determined using different techniques; 100 μl per well of methylene blue (Sigma M9140) (0.5% in 50:50 Ethanol:water), or 10-100 μl per well of CellTiter-Glo (Promega #G7573), depending on well size. For methylene blue staining, stain was incubated at room temperature for 30 minutes before plates were rinsed and dye solubilized in 1% N-lauroyl sarcosine, sodium salt, (Sigma L5125, in PBS). Plates were read on a microplate reader, measuring the OD at 620 nm. For CellTiter-Glo, plates were incubated at room temperature for 15 minutes and the chemiluminescent signal was read on the Victor V or Envison 2100 reader.
(§3) Percent inhibition of cell growth was expressed as percent proliferation relative to 100% proliferation (control). […]

HN5 = assay: Inhibition of cell proliferation, HN5; details: 72 h
Protocol: as §1, §2
Percent inhibition of cell growth was expressed as percent proliferation relative to 100% proliferation (control). Concentration of test compound that inhibited 50% of cell growth (IC50) was determined by 4 parameter fit of data using XLfit, (value of no cell control was substracted from all samples for background). The data are shown in Table 1 and Table 2 below and represent a compilation of several different experiments each performed using the general parameters outlined above, although minor variations may have been employed in some instances, in Table 1 and Table 2, +=IC50>1 μM; ++=IC50 0.5-1 μM: +++=IC50<0.5 μM.

MV522 = assay: Inhibition of cell proliferation, MV522; details: Lung, 72 h, methylene blue or CellTiter-Glo
Protocol: as §1, §2, §3

PANC-1 = assay: Inhibition of cell proliferation, PANC-1; details: Homo sapiens, pancreatic, 72 h, methylene blue or CellTiter-Glo
Protocol: as §1, §2, §3

BXPC3 = assay: Inhibition of cell proliferation, BXPC3; details: Homo sapiens, BXPC-3; Pancreatic; 72 h; methylene blue or CellTiter-Glo
Protocol: as §1, §2, §3

RPMI 8226 = assay: Inhibition of cell proliferation, RPMI 8226; details: Homo sapiens, leukemia, 72 h, methylene blue or CellTiter-Glo
Protocol: as §1, §2, §3

Saos-2 = assay: Inhibition of cell proliferation, Saos-2; details: Homo sapiens, bone, 72 h, methylene blue or CellTiter-Glo
Protocol: as §1, §2, §3

BT474 = assay: Inhibition of cell proliferation, BT474; details: Homo sapiens, BT-474; breast; 72 h; methylene blue or CellTiter-Glo
Protocol: as §1, §2, §3

BT549 = assay: Inhibition of cell proliferation, BT549; details: Homo sapiens, BT-549; breast; 72 h; methylene blue or CellTiter-Glo
Protocol: as §1, §2, §3

HCC1937 = assay: Inhibition of cell proliferation, HCC1937; details: Homo sapiens, breast, 72 h, methylene blue or CellTiter-Glo
Protocol: as §1, §2, §3

HCC1954 = assay: Inhibition of cell proliferation, HCC1954; details: Homo sapiens, breast, 72 h, methylene blue or CellTiter-Glo
Protocol: as §1, §2, §3

T-47D = assay: Inhibition of cell proliferation, T-47D; details: Homo sapiens, T47D; breast; 72 h; methylene blue or CellTiter-Glo
Protocol: as §1, §2, §3

HT-1080 = assay: Inhibition of cell proliferation, HT-1080; details: Homo sapiens, connective tissue, 72 h, methylene blue or CellTiter-Glo
Protocol: as §1, §2, §3

A 704 = assay: Inhibition of cell proliferation, A 704; details: Homo sapiens, A704; kidney; 72 h; methylene blue or CellTiter-Glo
Protocol: as §1, §2, §3

A498 = assay: Inhibition of cell proliferation, A498; details: Homo sapiens, kidney, 72 h, methylene blue or CellTiter-Glo
Protocol: as §1, §2, §3

SW156 = assay: Inhibition of cell proliferation, SW156; details: kidney; 72 h; methylene blue or CellTiter-Glo
Protocol: as §1, §2, §3

Calu1 = assay: Inhibition of cell proliferation, Calu1; details: Homo sapiens, Calu-1; lung; 72 h; methylene blue or CellTiter-Glo
Protocol: as §1, §2, §3

NCI-H358 = assay: Inhibition of cell proliferation, NCI-H358; details: Homo sapiens, lung, 72 h, methylene blue or CellTiter-Glo
Protocol: as §1, §2, §3

A2780 = assay: Inhibition of cell proliferation, A2780; details: Homo sapiens, ovary, 72 h, methylene blue or CellTiter-Glo
Protocol: as §1, §2, §3

BC-1 = assay: Inhibition of cell proliferation, BC-1; details: Homo sapiens, BC1; peripheral blood; 72 h; methylene blue or CellTiter-Glo
Protocol: as §1, §2, §3

BC-2 = assay: Inhibition of cell proliferation, BC-2; details: peripheral blood, 72 h, methylene blue or CellTiter-Glo
Protocol: as §1, §2, §3

SKMEL5 = assay: Inhibition of cell proliferation, SKMEL5; details: Homo sapiens, SK-MEL-5; skin; 72 h; methylene blue or CellTiter-Glo
Protocol: as §1, §2, §3

T24 = assay: Inhibition of cell proliferation, T24; details: Homo sapiens, T-24; urinary bladder; 72 h; methylene blue or CellTiter-Glo
Protocol: as §1, §2, §3

## C[C@@H](Oc1cc(-n2cnc3cc(-c4cnn(C)c4)ccc32)sc1C(N)=O)c1cccc(OC2CCN(C)CC2)c1Cl [Example 48]
HCT116
  IC50: < 0.5 µM
Hela
  IC50: < 0.5 µM
HN5; Homo sapiens, Head and neck, Table 2 first HN5 line
  IC50: < 0.5 µM
HN5; head/neck, Table 2 second HN5 line
  IC50: < 0.5 µM
MV522
  IC50: < 0.5 µM
PANC-1
  IC50: < 0.5 µM
BXPC3
  IC50: < 0.5 µM
RPMI 8226
  IC50: < 0.5 µM
Saos-2
  IC50: < 0.5 µM
BT474
  IC50: > 1 µM
BT549
  IC50: < 0.5 µM
HCC1937
  IC50: > 1 µM
HCC1954
  IC50: < 0.5 µM
T-47D
  IC50: > 1 µM
HT-1080
  IC50: < 0.5 µM
A 704
  IC50: < 0.5 µM
A498
  IC50: < 0.5 µM
SW156
  IC50: > 1 µM
Calu1
  IC50: < 0.5 µM
NCI-H358
  IC50: < 0.5 µM
A2780
  IC50: < 0.5 µM
BC-1
  IC50: < 0.5 µM
BC-2
  IC50: > 1 µM
SKMEL5
  IC50: < 0.5 µM
T24
  IC50: < 0.5 µM
